Source: the NIST ThermoML archive (doi:10.1016/j.fluid.2017.08.022)

Conditions: for mass density: 100 kPa, Liquid, Buoyancy - hydrostatic balance with magnetic suspension - one sinker

CCCCn1cc[n+](C)c1.[Cl-] [1-butyl-3-methylimidazolium chloride]
surface tension liquid-gas [mN/m]
Conditions	Ring tensiometer	Wilhelmy Plate
303.11 K	50.32	–
308.23 K	–	49.64
308.27 K	50.3	–
313.06 K	–	49.26
313.07 K	49.73	–
318.04 K	49.68	–
318.07 K	–	48.97
323.1 K	49.23	48.58
327.9 K	–	48.24
327.96 K	48.8	–
333.82 K	–	47.81
333.85 K	48.35	–
338.23 K	48.24	–
338.28 K	–	47.55
342.85 K	47.76	–
343.23 K	–	47.16
348.79 K	47.38	–
348.85 K	–	46.9
353.81 K	–	46.5
353.87 K	47.16	–
357.26 K	–	46.29
357.34 K	46.88	–
364.83 K	46.46	–
364.9 K	–	45.76

Conditions	mass density [kg/m3]
313.05 K	1073.4
318.21 K	1070.57
323.11 K	1067.9
328.37 K	1065.5
334.27 K	1062.01
338.89 K	1059.46
343.88 K	1056.78
349.01 K	1054.21
353.91 K	1051.34
357.34 K	1049.12
364.78 K	1044.98

CCCCCCCCCCn1cc[n+](C)c1.[Cl-] [1-decyl-3-methylimidazolium chloride]
Conditions	surface tension liquid-gas [mN/m]
317.84 K, Ring tensiometer	27.09
323.12 K, Wilhelmy Plate	26.44
323.14 K, Ring tensiometer	26.85
328.25 K, Wilhelmy Plate	26.12
328.26 K, Ring tensiometer	26.45
333.1 K, Wilhelmy Plate	25.87
333.13 K, Ring tensiometer	26.14
338.32 K, Wilhelmy Plate	25.57
338.37 K, Ring tensiometer	25.54
342.9 K, Wilhelmy Plate	25.37
342.95 K, Ring tensiometer	25.7
348.09 K, Wilhelmy Plate	25.15
348.13 K, Ring tensiometer	25.61
353.32 K, Wilhelmy Plate	24.85
353.33 K, Ring tensiometer	24.76
358.44 K, Wilhelmy Plate	24.59
358.57 K, Ring tensiometer	24.5

Conditions	mass density [kg/m3]
317.88 K	973.64
323.19 K	970.69
328.33 K	968.07
333.2 K	964.94
338.44 K	962.23
343.26 K	958.59
348.19 K	956.59
353.38 K	953.42
358.17 K	950.62
363.44 K	947.62

CCn1cc[n+](C)c1.[Cl-] [1-ethyl-3-methylimidazolium chloride]
Conditions	mass density [kg/m3]
313.38 K	1134.76
318.3 K	1132.06
323.25 K	1129.33
328.1 K	1126.5
333.15 K	1124.02
338.1 K	1120.96
342.86 K	1118.28
347.66 K	1115.32
353.21 K	1112.21
359.06 K	1109.07
364.85 K	1106.29

surface tension liquid-gas [mN/m]
Conditions	Ring tensiometer	Wilhelmy Plate
333.2 K	62.56	62.6
338.15 K	62.12	–
338.24 K	–	62.26
343.38 K	62.16	61.82
348.57 K	–	61.51
348.58 K	61.59	–
353.3 K	61.45	–
353.32 K	–	61.1
358.44 K	60.8	–
358.5 K	–	60.64
364.76 K	60.05	–
364.96 K	–	60.2

CCCCCCn1cc[n+](C)c1.[Cl-] [1-hexyl-3-methylimidazolium chloride]
surface tension liquid-gas [mN/m]
Conditions	Ring tensiometer	Wilhelmy Plate
303.19 K	39.83	–
303.22 K	–	39.37
308.21 K	–	39.15
308.22 K	39.58	–
312.93 K	–	38.95
312.95 K	39.37	–
318.33 K	39.1	38.69
323.1 K	–	38.45
323.12 K	38.84	–
328.18 K	–	38.17
328.2 K	38.54	–
333.27 K	–	37.94
333.31 K	38.3	–
338.68 K	–	37.66
338.71 K	37.97	–
343.01 K	–	37.44
343.06 K	37.74	–
348.1 K	–	37.16
348.15 K	37.52	–
353.53 K	–	36.93
353.63 K	37.19	–
358.12 K	–	36.68
358.24 K	37	–
363.07 K	–	36.42
363.17 K	36.72	–

Conditions	mass density [kg/m3]
303.22 K	1035.05
308.25 K	1032.18
313 K	1029.5
318.38 K	1026.54
323.18 K	1023.64
328.31 K	1020.97
333.34 K	1017.64
338.73 K	1014.46
343.06 K	1011.76
348.19 K	1009.28
353.71 K	1006.44
358.14 K	1004
363.17 K	1001.49

CCC[n+]1ccn(C)c1.[Cl-] [1-methyl-3-propylimidazolium chloride]
surface tension liquid-gas [mN/m]
Conditions	Ring tensiometer	Wilhelmy Plate
308.21 K	56.7	–
313.04 K	–	55.61
313.07 K	56.45	–
318.32 K	56.27	–
318.34 K	–	55.41
323.54 K	55.92	54.98
328.41 K	–	54.7
328.46 K	55.49	–
333.49 K	–	54.42
333.5 K	55.37	–
337.95 K	–	54.09
338 K	54.98	–
343.39 K	–	53.8
343.45 K	54.58	–
348.34 K	–	53.59
348.39 K	54.3	–
353.07 K	–	53.29
353.11 K	54.07	–
358.45 K	–	52.95
358.5 K	53.69	–
363.91 K	53.27	–
364.37 K	–	52.57

Conditions	mass density [kg/m3]
308.26 K	1103.45
313.1 K	1100.71
318.25 K	1097.5
323.58 K	1094.84
328.52 K	1091.95
333.54 K	1089.17
338.03 K	1086.64
343.46 K	1083.12
348.39 K	1080.73
353.12 K	1078.37
358.51 K	1075.69
363.89 K	1071.76

Cl.Cn1ccnc1 [1-methylimidazolium chloride]
Conditions	mass density [kg/m3]
333.65 K	1195.33
338.68 K	1192.04
343.7 K	1187.98
347.72 K	1186.51
353.06 K	1184.13
359.06 K	1180.78
363.86 K	1177.41

surface tension liquid-gas [mN/m]
Conditions	Ring tensiometer	Wilhelmy Plate
333.66 K	67.02	–
333.67 K	–	66.84
338.7 K	66.37	66.5
343.19 K	–	66.13
343.24 K	66.48	–
348.1 K	66.18	–
348.11 K	–	65.78
352.35 K	–	65.4
352.38 K	65.96	–
359.12 K	65.47	–
359.17 K	–	64.87
363.94 K	65.12	–
364 K	–	64.58
